The values that follow come from patent publication US9988343B2, “Inhibitors of histone deacetylase” (Dana-Farber Cancer Institute, Inc., priority 2013, dated 2018).

In test [1] the target is T1, HDAC6 (Homo sapiens, UniProt Q9UBN7).
T1 sequence (Q9UBN7 1-1215): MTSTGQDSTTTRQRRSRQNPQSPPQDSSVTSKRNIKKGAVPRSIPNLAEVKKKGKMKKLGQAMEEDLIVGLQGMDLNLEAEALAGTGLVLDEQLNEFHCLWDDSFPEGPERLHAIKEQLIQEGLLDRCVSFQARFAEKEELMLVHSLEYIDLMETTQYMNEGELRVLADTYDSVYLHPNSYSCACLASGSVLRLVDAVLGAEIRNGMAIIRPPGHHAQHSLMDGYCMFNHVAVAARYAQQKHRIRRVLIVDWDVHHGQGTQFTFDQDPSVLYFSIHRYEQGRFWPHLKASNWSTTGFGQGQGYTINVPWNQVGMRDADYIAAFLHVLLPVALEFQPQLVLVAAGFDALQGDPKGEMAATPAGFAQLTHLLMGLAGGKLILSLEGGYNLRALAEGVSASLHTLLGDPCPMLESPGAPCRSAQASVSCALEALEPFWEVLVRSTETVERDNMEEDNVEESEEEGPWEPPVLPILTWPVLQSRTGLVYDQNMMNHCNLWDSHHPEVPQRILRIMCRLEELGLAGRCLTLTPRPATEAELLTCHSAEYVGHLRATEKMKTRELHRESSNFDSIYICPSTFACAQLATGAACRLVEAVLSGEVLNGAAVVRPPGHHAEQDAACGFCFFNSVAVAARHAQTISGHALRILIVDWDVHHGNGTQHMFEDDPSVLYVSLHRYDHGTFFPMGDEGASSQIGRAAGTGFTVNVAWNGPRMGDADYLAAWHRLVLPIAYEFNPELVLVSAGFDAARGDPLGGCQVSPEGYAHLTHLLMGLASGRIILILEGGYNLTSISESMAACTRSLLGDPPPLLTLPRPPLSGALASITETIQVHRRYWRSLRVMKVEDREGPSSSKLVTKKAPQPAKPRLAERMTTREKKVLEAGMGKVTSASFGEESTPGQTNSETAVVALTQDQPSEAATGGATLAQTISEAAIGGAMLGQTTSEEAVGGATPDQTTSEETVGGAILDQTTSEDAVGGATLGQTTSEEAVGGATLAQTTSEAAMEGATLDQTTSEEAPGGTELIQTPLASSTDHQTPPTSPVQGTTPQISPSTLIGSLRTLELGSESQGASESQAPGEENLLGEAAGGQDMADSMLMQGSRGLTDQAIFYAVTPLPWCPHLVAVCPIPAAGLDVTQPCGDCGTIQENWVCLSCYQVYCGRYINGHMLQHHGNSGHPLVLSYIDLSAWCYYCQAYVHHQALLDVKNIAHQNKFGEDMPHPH
The experiment in a line: HDAC6 inhibitory activity (IC50). The note with it: Table 2; read-out: HDAC6. The test is classed as biochemical.
Description: (§1) HDAC inhibitor compounds designed and synthesized in accordance with the present invention were tested for their inhibitor activity against several different HDAC isoforms.

Test [2] deals with HDAC2 (Homo sapiens, UniProt Q92769). The experiment in a line: HDAC2 inhibitory activity (IC50). It is filed as biochemical. Conditions: Table 2; read-out: HDAC2.
Sequence of HDAC2 (Q92769 whole entry): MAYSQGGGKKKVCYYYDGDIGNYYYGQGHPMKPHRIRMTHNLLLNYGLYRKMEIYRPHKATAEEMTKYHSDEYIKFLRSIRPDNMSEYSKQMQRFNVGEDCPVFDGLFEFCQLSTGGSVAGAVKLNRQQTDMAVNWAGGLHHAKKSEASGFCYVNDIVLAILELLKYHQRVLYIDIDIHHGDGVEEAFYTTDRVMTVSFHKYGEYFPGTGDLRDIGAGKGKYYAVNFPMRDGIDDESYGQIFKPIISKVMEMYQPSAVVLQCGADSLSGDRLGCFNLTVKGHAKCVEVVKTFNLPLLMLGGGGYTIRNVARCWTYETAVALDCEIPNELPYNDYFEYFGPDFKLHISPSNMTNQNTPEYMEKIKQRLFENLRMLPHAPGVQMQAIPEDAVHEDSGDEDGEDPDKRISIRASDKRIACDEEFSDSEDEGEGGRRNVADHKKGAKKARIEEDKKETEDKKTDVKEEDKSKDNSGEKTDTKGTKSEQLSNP
Description: as §1
Test [3] deals with HDAC1 (Homo sapiens, UniProt Q13547). The experiment in a line: HDAC1 inhibitory activity (IC50). It is filed as biochemical. The note with it: Table 2; read-out: HDAC1.
Sequence of HDAC1 (Q13547 whole entry): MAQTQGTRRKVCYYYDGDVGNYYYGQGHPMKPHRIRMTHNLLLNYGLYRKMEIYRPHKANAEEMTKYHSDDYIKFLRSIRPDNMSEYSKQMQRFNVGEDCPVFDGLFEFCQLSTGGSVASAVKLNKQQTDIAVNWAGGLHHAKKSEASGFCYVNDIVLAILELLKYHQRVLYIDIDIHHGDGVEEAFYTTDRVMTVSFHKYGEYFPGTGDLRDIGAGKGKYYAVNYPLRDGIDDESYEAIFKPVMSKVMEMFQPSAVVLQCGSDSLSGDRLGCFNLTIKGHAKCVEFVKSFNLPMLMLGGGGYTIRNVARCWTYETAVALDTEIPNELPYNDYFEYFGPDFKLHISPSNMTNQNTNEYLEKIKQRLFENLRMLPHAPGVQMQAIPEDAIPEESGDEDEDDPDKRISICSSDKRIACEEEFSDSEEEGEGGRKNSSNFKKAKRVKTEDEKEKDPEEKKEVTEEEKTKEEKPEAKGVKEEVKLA
Description: as §1
Test [4] concerns the target HDAC3 (Homo sapiens, UniProt O15379). The experiment in a line: HDAC3 inhibitory activity (IC50). Conditions: Table 2; read-out: HDAC3. The test is classed as biochemical.
Description: as §1
The test system of test [5] is MM.1S cells. The experiment in a line: Immunoblot of histone and α-tubulin acetylation in MM.1S cells. The test is classed as cell-based, human. The note with it: 12 h, Compound 10 10 and 20 μM.
Test [6] deals with pSTAT3 (Tyr705). The experiment in a line: Immunoblot of STAT3 phosphorylation in MM cells. The test is classed as cell-based, human. Here is the method: MM cells were harvested and lysed using sodium dodecyl sulfate-polyacrylamide gel electrophoresis (SDS-PAGE) sample buffer containing 60 mM Tris-HCl, pH 6.8, 2% SDS, 10% glycerol, 0.005% bromophenol blue, 5 mM ethylenediaminetetraacetic acid, 5 mM NaF, 2 mM […], 1 mM phenylmethylsulfonyl fluoride (PMSF), 5 μg/mL leupeptin, and 5 μg/mL aprotinin; and then heated at 100° C. for 5 min. After the determination of protein concentration using DC protein assay (Bio-Rad, Hercules, Calif.), β-mercaptoethanol (β-ME) was added to the whole-cell lysates to a 2% final β-ME concentration. The whole-cell lysates were subjected to SDS-PAGE, transferred to nitrocellulose membranes (Bio-Rad, Hercules, Calif.) or polyvinylidene fluoride membranes (Millipore, Billerica, Mass.), and immunoblotted with anti-histone H3, -HDAC1, -HDAC2, -HDAC3, -Acetyl-histone H2A (Lysine 5) (Ac-H2AK5), -Acetyl-histone H2B (lysine 5) (Ac-H2 BK5), -Acetyl-histone H3 (lysine 9) (Ac-H3K9), -Acetyl-histone H4 (lysine 8) (Ac-H4K8), -glyceraldehyde-3-phosphate dehydrogenase (GAPDH), -poly (ADP-ribose) polymerase (PARP), -caspase-3, -caspase-8, -caspase-9, -Signal transducers and activators of transcription 3 (STAT3), -phospho-STAT3 (pSTAT3) (tyrosine 705), -pSTAT3 (serine 727), -p21, -Janus kinase 2 (JAK2), -acetylated-Lysine (Ac-K), and anti-phosphorylated-tyrosine antibodies (Abs; Cell Signaling Technology, Beverly, Mass.).
MM.1S, U266, and INA6 cells were cultured with DMSO control or LBH589 (50 and 100 nM) for 8 h.
MM.1S cells pretreated with or without 50 nM LBH589 for 8 hours were then treated with IL-6 (10 ng/mL) or BMSC culture supernatants (#1 and #2) for 15 minutes. Whole cell lysates were subjected to immunoblotting with anti-pSTAT3 (Tyr705) and STAT3 Abs.
In addition, INA-6 cells were cultured with DMSO control, LBH589 (50 nM), TSA (1 μM) or SAHA (2 μM) for 8 hours. Whole cell lysates were subjected to immunoblotting with anti-pSTAT3 (Tyr705), STAT3, and GAPDH Abs.
Whole cell lysates were subjected to immunoblotting with anti-pSTAT3 (Tyr705), -STAT3, -pERK1/2 (Thr202/204), and -ERK1/2 Abs (FIG. 6G).
See, e.g., Hideshima et al. Blood. 2006, 107:4053-4062. Since bortezomib upregulates activated STAT3 in head and neck squamous cell carcinoma (see, e.g., Li et al. Mol Cancer Ther 2009. 8:2211-2220), experiments were conducted to test whether bortezomib enhances p-STAT3 in MM cells. RPMI8226 cells were infected with Luc, HDAC1 (sh1), HDAC2 (sh1) or HDAC3 (sh1) shRNAs and then treated with or without bortezomib (5 nM) for 6 hours. Whole cell lysates were subjected to immunoblotting with anti-STAT3, -pSTAT3 (Tyr705), -pERK1/2 (Thr202/204) and -ERK1/2 Abs.
Background: Immunoblotting shows a protein as a band on a membrane.

[7] abbreviates: INA-6 cells, 8 hours, TSA 1 μM, SAHA 2 μM (FIG. 4C).

Sequence of HDAC3 (O15379 whole entry): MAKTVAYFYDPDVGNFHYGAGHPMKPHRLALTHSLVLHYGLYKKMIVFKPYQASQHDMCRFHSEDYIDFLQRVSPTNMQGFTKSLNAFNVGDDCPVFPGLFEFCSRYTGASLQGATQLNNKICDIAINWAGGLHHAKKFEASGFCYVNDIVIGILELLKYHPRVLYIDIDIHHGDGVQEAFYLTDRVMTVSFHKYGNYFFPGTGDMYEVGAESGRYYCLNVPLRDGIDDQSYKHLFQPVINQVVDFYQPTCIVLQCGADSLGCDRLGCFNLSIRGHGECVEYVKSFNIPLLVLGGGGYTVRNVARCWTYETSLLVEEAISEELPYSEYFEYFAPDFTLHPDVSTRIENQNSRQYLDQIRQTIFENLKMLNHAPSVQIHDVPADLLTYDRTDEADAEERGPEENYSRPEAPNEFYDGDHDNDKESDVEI
Sequence of HDAC3 (Q9Y618 395-489 partner limits assumed): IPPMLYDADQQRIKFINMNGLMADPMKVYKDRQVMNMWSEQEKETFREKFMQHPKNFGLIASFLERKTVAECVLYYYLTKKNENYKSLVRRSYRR

For `Nc1ccccc1NC(=O)c1cccnc1` [Compound 1], the IC50 in test [1] amounted to 74.3 µM.

Take `Nc1ccccc1NC(=O)c1ccncc1` [Compound 2]: the IC50 in test [2] is 2.34 µM; in test [3] it was 2.82 µM; in test [1], more than 100 µM; in test [4] it was 0.368 µM.

Consider `Nc1ccccc1NC(=O)c1ccccn1` [Compound 3], for which the IC50 in test [2] was 2.36 µM; in test [1], more than 100 µM; in test [4], 0.346 µM.

As to `O=C(Nc1ccccc1O)c1cccnc1` [Compound 5], the IC50 in test [2] is 3.67 µM; in test [3] it was 10.5 µM; in test [1], more than 100 µM; in test [4], 3.32 µM.

Consider `O=C(Nc1ccccc1O)c1ccncc1` [Compound 6], for which the IC50 is 1.91 µM in test [2], 5.77 µM in test [3], more than 100 µM in test [1] and 1.99 µM in test [4].

For the molecule `O=C(Nc1ccccc1O)c1ccccn1` [Compound 7], the IC50 in test [2] is 4.11 µM; in test [3] it was 12.4 µM; in test [1], more than 100 µM; in test [4], 3.62 µM.

Turning to `Nc1ccccc1NC(=O)c1cnc(Nc2ccccc2)nc1` [Compound 8], the IC50 in test [2] was 1.21 µM; in test [3], 0.735 µM; in test [1], more than 100 µM; in test [4], 0.169 µM.

As to `Nc1ccccc1NC(=O)c1ccc(Cl)nc1` [Compound 9], the IC50 is 2.59 µM in test [2], 3.28 µM in test [3], more than 100 µM in test [1] and 0.28 µM in test [4].

As to `CC(=O)Nc1ccc(C(=O)Nc2cc(-c3ccccc3)ccc2N)cc1` [Compound 11], the IC50 in test [2] is 0.0604 µM; in test [3], less than 0.01 µM; in test [1], more than 100 µM; in test [4], 0.843 µM.

Turning to `CC(=O)Nc1ccc(C(=O)Nc2ccc(F)cc2N)cc1` [Compound 12], the IC50 was 0.76 µM in test [2], 1.23 µM in test [3], more than 100 µM in test [1] and 0.0702 µM in test [4].

Take `Nc1cc(F)ccc1NC(=O)c1cccnc1` [Compound 13]: the IC50 in test [2] was 13.4 µM; in test [3], 27 µM; in test [1] it was more than 100 µM; in test [4] it was 1.96 µM.

On to `Nc1cc(F)ccc1NC(=O)c1cnccn1` [Compound 14], for which the IC50 is 2.32 µM in test [2], 4.12 µM in test [3], more than 100 µM in test [1] and 0.296 µM in test [4].

For `O=C(Nc1ccc(F)cc1O)c1cccnc1` [Compound 15], the IC50 in test [2] was 5.52 µM; in test [3] it was 13.7 µM; in test [1], more than 100 µM; in test [4], 2.35 µM.

In the case of `Cc1ccc(C(=O)Nc2ccccc2N)cn1` [Compound 17], the IC50 in test [2] was 1.36 µM; in test [3] it was 1.39 µM; in test [1] it was more than 100 µM; in test [4], 0.213 µM.

Consider `Cc1[nH]c2ccccc2c1CCNCc1ccc(/C=C/C(=O)NO)cc1` [LBH589, reference compound], for which the histone acetylation entry in test [5] (LBH589 50 and 100 nM (FIG. 6F left)) is “significantly triggered both histone and α-tubulin acetylation”. For the same molecule, the “α-tubulin acetylation (biomarker of HDAC6 inhibition)” value in test [5] (LBH589 50 and 100 nM (FIG. 6F right)) is “significantly triggered both histone and α-tubulin acetylation”. The “P-STAT3 upregulated by IL-6 or BMSC culture supernatants” value in test [6] (MM.1S, 50 nM pretreatment 8 hours, IL-6 10 ng/mL or supernatants 15 minutes (FIG. 4B)) is given as “blocked”. Besides, in test [6] (MM.1S, U266, INA-6 cells, 50 and 100 nM, 8 h (FIG. 4A)), the p-STAT3 result is reported as “significantly inhibited”.

As for `O=C(CCCCCCC(=O)Nc1ccccc1)NO` [SAHA, suberoylanilide hydroxamic acid], the p-STAT3 entry in test [6] (setting [7]) was “downregulated p-STAT3”.

On to `CC(/C=C/C(=O)NO)=C\[C@@H](C)C(=O)c1ccc(N(C)C)cc1` [TSA], for which the p-STAT3 result in test [6] (setting [7]) is reported as “downregulated p-STAT3”.
